Laboratory results from ChEMBL document CHEMBL1125132, “Synthesis and inhibitory potency of peptides corresponding to the subunit 2 C-terminal region of herpes virus ribonucleotide reductases” (J Med Chem, 1990).
Numbered stars: 1 amine (or outer) side, 2 acyl side, 3 side chain; on linkers, the order of the positions; unused ones are H or OH. Square brackets hold non-standard residues; d marks the D form. Peptide text beside a SMILES is read from it. * marks the point of attachment. ξ: configuration not given here. X1 = CC(C)[C@@H](C(=O)[*:2])N(CCCCCCCCO[*:3])[*:1]; Desaminotyrosyl = O=C(CCc1ccc(O)cc1)*; Thr(3ξ) = CC(O)[C@H](N)C(=O)O

Assays:
[1] = target: T1, Ribonucleoside-diphosphate reductase large subunit (Herpes simplex virus (type 1 / strain 17), UniProt P08543); assay: Inhibitory activity against HSV-1 Ribonucleoside diphosphate reductase was determined; parameters: species or system Human alphaherpesvirus 1
T1 sequence (P08543 whole entry): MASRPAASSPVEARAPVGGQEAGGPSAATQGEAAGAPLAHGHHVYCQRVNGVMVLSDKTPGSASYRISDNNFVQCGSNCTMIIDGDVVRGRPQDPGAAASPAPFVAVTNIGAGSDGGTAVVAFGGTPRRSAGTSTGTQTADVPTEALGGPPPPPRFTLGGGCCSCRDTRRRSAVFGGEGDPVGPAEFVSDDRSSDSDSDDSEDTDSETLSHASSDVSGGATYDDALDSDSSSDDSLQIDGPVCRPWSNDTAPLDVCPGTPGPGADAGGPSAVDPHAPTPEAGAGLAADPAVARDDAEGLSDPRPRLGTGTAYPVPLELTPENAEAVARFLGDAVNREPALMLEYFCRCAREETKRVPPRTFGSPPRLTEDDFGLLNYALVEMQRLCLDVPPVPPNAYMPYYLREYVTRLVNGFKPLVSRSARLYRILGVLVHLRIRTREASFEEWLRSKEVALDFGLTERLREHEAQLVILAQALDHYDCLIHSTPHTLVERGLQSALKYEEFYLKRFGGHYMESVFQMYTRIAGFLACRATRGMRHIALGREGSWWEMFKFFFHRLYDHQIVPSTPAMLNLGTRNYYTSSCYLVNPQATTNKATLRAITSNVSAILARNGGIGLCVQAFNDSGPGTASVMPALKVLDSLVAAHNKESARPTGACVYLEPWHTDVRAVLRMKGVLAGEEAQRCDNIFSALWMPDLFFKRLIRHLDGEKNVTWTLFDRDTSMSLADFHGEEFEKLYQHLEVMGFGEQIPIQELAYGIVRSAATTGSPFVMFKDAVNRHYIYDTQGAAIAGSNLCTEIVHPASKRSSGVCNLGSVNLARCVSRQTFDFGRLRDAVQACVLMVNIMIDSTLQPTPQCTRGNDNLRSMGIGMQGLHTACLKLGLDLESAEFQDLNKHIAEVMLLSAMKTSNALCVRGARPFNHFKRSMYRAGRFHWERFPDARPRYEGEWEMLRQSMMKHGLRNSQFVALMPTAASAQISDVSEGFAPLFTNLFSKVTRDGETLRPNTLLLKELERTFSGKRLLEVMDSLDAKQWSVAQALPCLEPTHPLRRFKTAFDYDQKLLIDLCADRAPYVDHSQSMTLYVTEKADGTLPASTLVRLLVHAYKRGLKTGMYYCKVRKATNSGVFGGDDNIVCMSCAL

[2] = target: T1, Ribonucleoside-diphosphate reductase large subunit; assay: Inhibitory activity was determined against HSV-1 Ribonucleoside diphosphate reductase; parameters: species or system Human alphaherpesvirus 1
[3] = Relative inhibition compared to HSV-R2-(329-337) was determined; Inactive at 2 mM
[4] = Relative inhibition compared to HSV-R2-(329-337) was determined; Inactive at 1 mM

| Compound | IC50 [1] [µM] | IC50 [2] [µM] | Relative inhibition [3] [%] | Relative inhibition [4] [%] |
| --- | --- | --- | --- | --- |
| COc1ccc(C[C@H](NC(C)=O)C(=O)N[C@@H](C)C(=O)NCC(=O)N[C@@H](C)C(=O)N[C@H](C(=O)N[C@H](C(=O)N[C@@H](CC(N)=O)C(=O)N[C@@H](CC(=O)O)C(=O)N[C@@H](CC(C)C)C(=O)O)C(C)C)C(C)C)cc1 | 60 |  |  |  |
| COc1ccc(C[C@H](N)C(=O)N[C@@H](C)C(=O)NCC(=O)N[C@@H](C)C(=O)N[C@H](C(=O)N[C@H](C(=O)N[C@@H](CC(N)=O)C(=O)N[C@@H](CC(=O)O)C(=O)N[C@@H](CC(C)C)C(=O)O)C(C)C)C(C)C)cc1 | 60 |  |  |  |
| CC(C)C[C@H](NC(=O)[C@H](CC(=O)O)NC(=O)[C@H](CC(N)=O)NC(=O)[C@@H](NC(=O)[C@@H](NC(=O)[C@H](C)NC(=O)CNC(=O)[C@H](C)NC(=O)[C@@H](N)Cc1ccc(O)cc1)C(C)C)C(C)C)C(N)=O | 60 |  |  |  |
| CSCC[C@H](NC(=O)[C@@H](NC(=O)[C@@H](N)Cc1ccc(O)cc1)[C@@H](C)O)C(=O)N[C@@H](CC(C)C)C(=O)N[C@H](C(=O)N[C@H](C(=O)N[C@@H](CC(=O)O)C(=O)N[C@@H](CC(=O)O)C(=O)N[C@@H](CC(C)C)C(=O)O)C(C)C)C(C)C | 36 | 110 |  |  |
| CC(C)C[C@H](NC(=O)[C@H](CC(=O)O)NC(=O)[C@H](CC(N)=O)NC(=O)[C@@H](NC(=O)[C@@H](NC(=O)[C@H](C)NC(=O)CNC(=O)[C@H](C)NC(=O)[C@H](Cc1ccc(O)cc1)NC(=O)[C@H](CO)NC(=O)[C@@H](NC(=O)[C@H](CO)NC(=O)[C@H](CCCN=C(N)N)NC(=O)[C@H](CS)NC(=O)[C@H](CCC(=O)O)NC(=O)[C@H](Cc1ccccc1)NC(=O)[C@H](Cc1ccccc1)NC(=O)[C@H](CC(=O)O)NC(=O)[C@@H](N)[C@@H](C)O)[C@@H](C)O)C(C)C)C(C)C)C(=O)O | 55 | 15 |  |  |
| CC(=O)N[C@H](C(=O)N[C@H](C(=O)N[C@@H](CC(N)=O)C(=O)N[C@@H](CC(=O)O)C(=O)N[C@@H](CC(C)C)C(=O)O)C(C)C)C(C)C | 60 | 400 |  |  |
| CC(=O)N[C@H](Cc1ccc(O)cc1)C(=O)N[C@@H](C)C(=O)NCC(=O)N[C@@H](C)C(=O)N[C@H](C(=O)N[C@H](C(=O)N[C@@H](CC(N)=O)C(=O)N[C@@H](CC(=O)O)C(=O)N[C@@H](CC(C)C)C(=O)O)C(C)C)C(C)C | 60 |  |  |  |
| CC(C)C[C@H](NC(=O)[C@H](CC(=O)O)NC(=O)[C@H](CC(N)=O)NC(=O)[C@@H](NC(=O)[C@@H](NC(=O)[C@H](C)NC(=O)CNC(=O)[C@H](C)NC(=O)[C@H](Cc1ccc(O)cc1)NC(=O)CCCCCCCN)C(C)C)C(C)C)C(=O)O | 44 | 12 |  |  |
| CC(=O)N[C@@H](Cc1ccc(O)cc1)C(=O)N[C@H](C)C(=O)NCC(=O)N[C@@H](C)C(=O)N[C@H](C(=O)N[C@H](C(=O)N[C@@H](CC(N)=O)C(=O)N[C@@H](CC(=O)O)C(=O)N[C@@H](CC(C)C)C(=O)O)C(C)C)C(C)C | 60 |  |  |  |
| CC(=O)N[C@@H](Cc1ccc(O)cc1)C(=O)N[C@@H](C)C(=O)NCC(=O)N[C@@H](C)C(=O)N[C@H](C(=O)N[C@H](C(=O)N[C@@H](CC(N)=O)C(=O)N[C@@H](CC(=O)O)C(=O)N[C@@H](CC(C)C)C(N)=O)C(C)C)C(C)C | 60 |  |  |  |
| CC(=O)N[C@@H](Cc1ccc(O)cc1)C(=O)N[C@@H](C)C(=O)NCC(=O)N[C@@H](C)C(=O)N[C@H](C(=O)N[C@H](C(=O)N[C@@H](CC(N)=O)C(=O)N[C@@H](CC(=O)O)C(=O)N[C@@H](CC(C)C)C(=O)O)C(C)C)C(C)C | 60 |  |  |  |
| CC(C)C[C@H](NC(=O)[C@H](CC(=O)O)NC(=O)[C@H](CC(N)=O)NC(=O)[C@@H](NC(=O)[C@@H](NC(=O)[C@H](C)NC(=O)CNC(=O)[C@H](C)NC(=O)CCc1ccc(O)cc1)C(C)C)C(C)C)C(=O)O (Desaminotyrosyl-AGAVVNDL-OH) | 60 | 33 |  |  |
| CC[C@H](C)[C@H](NC(=O)[C@@H](NC(=O)CNC(=O)[C@H](C)NC(=O)CCc1ccc(O)cc1)C(C)O)C(=O)N[C@@H](CC(N)=O)C(=O)N[C@@H](CC(=O)O)C(=O)N[C@@H](CC(C)C)C(=O)O (some centres not stated) (Desaminotyrosyl-AG[Thr(3ξ)]INDL-OH) | 13 | 13 |  |  |
| CC(C)C[C@H](NC(=O)[C@H](CC(=O)O)NC(=O)[C@@H](N)CC(N)=O)C(=O)O (H-Asn-Asp-Leu-OH) |  |  | 0 |  |
| CC(C)C[C@H](NC(=O)[C@H](CC(=O)O)NC(=O)[C@H](CC(N)=O)NC(=O)[C@@H](N)C(C)C)C(=O)O (H-VNDL-OH) |  |  | 0 |  |
| CC(C)C[C@H](NC(=O)[C@H](CC(=O)O)NC(=O)[C@H](CC(N)=O)NC(=O)[C@@H](NC(=O)[C@@H](NCCCCCCCCOC(=O)[C@@H](N)Cc1ccc(O)cc1)C(C)C)C(C)C)C(=O)O (H-[X1](Tyr)VNDL-OH) | 63 | 63 |  |  |
| Ac-YAGVVNDL-OH | 60 |  |  |  |
| Ac-YGAVVNDL-OH | 60 |  |  |  |
| H-AAGAVVNDL-OH | 280 | 280 |  |  |
| H-AGAVVNDL-OH | 36 | 283 |  |  |
| H-AVVNDL-OH | 190 | 190 |  |  |
| H-ECRSTSYAGAVVNDL-OH | 60 | 42 |  |  |
| H-FAGAVVNDL-OH | 55 | 90 |  |  |
| H-GAVVNDL-OH | 225 | 225 |  |  |

| Compound | IC50 [1] [µM] | IC50 [2] [µM] | Relative inhibition [3] [%] | Relative inhibition [4] [%] |
| --- | --- | --- | --- | --- |
| H-HAGAVVNDL-OH | 55 | 323 |  |  |
| H-KYAGAVVNDL-OH | 55 |  |  |  |
| H-LAGAVVNDL-OH | 211 | 211 |  |  |
| H-STSYAGAVVNDL-OH | 60 | 29 |  |  |
| H-YAGAAVNDL-OH |  |  | 0 |  |
| H-YAGAVANDL-OH | 60 | 760 |  |  |
| H-YAGAVINDL-OH | 49 | 33 |  |  |
| H-YAGAVV-OH |  |  | 0 |  |
| H-YAGAVVADL-OH |  |  |  | 0 |
| H-YAGAVVN-OH |  |  | 0 |  |
| H-YAGAVVNAL-OH |  |  |  | 0 |
| H-YAGAVVND-OH |  |  | 0 |  |
| H-YAGAVVNDA-OH |  |  |  | 0 |
| H-YAGAVVNDF-OH |  |  |  | 0 |
| H-YAGAVVNDI-OH | 55 | 153 |  |  |
| H-YAGAVVNDLK-OH | 55 | 458 |  |  |
| H-YAGAVVNDV-OH | 55 | 846 |  |  |
| H-YAGAVVNDY-OH |  |  |  | 0 |
| H-YAGPVVNDL-OH | 44 |  |  |  |
| H-YAGTVINDL-OH | 60 |  |  |  |
| H-YAGTVVNDL-OH | 44 | 29 |  |  |
| H-YAPAVVNDL-OH | 44 | 37 |  |  |
| H-YAVVNDL-OH | 60 |  |  |  |
| H-YGAVVNDL-OH | 60 | 330 |  |  |
